Results reported in ChEMBL document CHEMBL3046329, “Sensitivity to silthiofam, tebuconazole and difenoconazole of Gaeumannomyces graminis var. tritici isolates from China” (Pest Manag Sci, 2012).
In brackets after ≈: the same amount, converted by molar mass.

Experiments:
Format in all cases: functional, organism-based
Gaeumannomyces tritici [1] = experiment: Antifungal activity against sithiofam-resistant Gaeumannomyces graminis var. tritici isolate JS06 expressing C1 genetic cluster assessed as reduction in fungal colony diameter after 4 days; conditions: isolate JS06, 96 h
Gaeumannomyces tritici [2] = experiment: Antifungal activity against sithiofam-resistant Gaeumannomyces graminis var. tritici isolate JS05 expressing C1 genetic cluster assessed as reduction in fungal colony diameter after 4 days; conditions: isolate JS05, 96 h
Gaeumannomyces tritici [3] = experiment: Antifungal activity against sithiofam-resistant Gaeumannomyces graminis var. tritici isolate JS09 expressing C1 genetic cluster assessed as reduction in fungal colony diameter after 4 days; conditions: isolate JS09, 96 h
Gaeumannomyces tritici [4] = experiment: Antifungal activity against sithiofam-sensitive Gaeumannomyces graminis var. tritici isolate HN21 expressing C2 genetic cluster assessed as reduction in fungal colony diameter after 4 days; conditions: isolate HN21, 96 h
Gaeumannomyces tritici [5] = experiment: Antifungal activity against sithiofam-resistant Gaeumannomyces graminis var. tritici isolate HN20 expressing C1 genetic cluster assessed as reduction in fungal colony diameter after 4 days; conditions: isolate HN20, 96 h
Gaeumannomyces tritici [6] = experiment: Antifungal activity against sithiofam-sensitive Gaeumannomyces graminis var. tritici isolate HN18 expressing C2 genetic cluster assessed as reduction in fungal colony diameter after 4 days; conditions: isolate HN18, 96 h
Gaeumannomyces tritici [7] = experiment: Antifungal activity against sithiofam-sensitive Gaeumannomyces graminis var. tritici isolate HN28 expressing C2 genetic cluster assessed as reduction in fungal colony diameter after 4 days; conditions: isolate HN28, 96 h
Gaeumannomyces tritici [8] = experiment: Antifungal activity against sithiofam-sensitive Gaeumannomyces graminis var. tritici isolate HN26 expressing C2 genetic cluster assessed as reduction in fungal colony diameter after 4 days; conditions: isolate HN26, 96 h
Gaeumannomyces tritici [9] = experiment: Antifungal activity against sithiofam-sensitive Gaeumannomyces graminis var. tritici isolate HN23 expressing C2 genetic cluster assessed as reduction in fungal colony diameter after 4 days; conditions: isolate HN23, 96 h
Gaeumannomyces tritici [10] = experiment: Antifungal activity against sithiofam-sensitive Gaeumannomyces graminis var. tritici isolate HN22 expressing C2 genetic cluster assessed as reduction in fungal colony diameter after 4 days; conditions: isolate HN22, 96 h
Gaeumannomyces tritici [11] = experiment: Antifungal activity against sithiofam-sensitive Gaeumannomyces graminis var. tritici isolate HN14 expressing C2 genetic cluster assessed as reduction in fungal colony diameter after 4 days; conditions: isolate HN14, 96 h
Gaeumannomyces tritici [12] = experiment: Antifungal activity against sithiofam-resistant Gaeumannomyces graminis var. tritici isolate HN13 expressing C1 genetic cluster assessed as reduction in fungal colony diameter after 4 days; conditions: isolate HN13, 96 h
Gaeumannomyces tritici [13] = experiment: Antifungal activity against sithiofam-resistant Gaeumannomyces graminis var. tritici isolate HN10 expressing C1 genetic cluster assessed as reduction in fungal colony diameter after 4 days; conditions: isolate HN10, 96 h
Gaeumannomyces tritici [14] = experiment: Antifungal activity against sithiofam-resistant Gaeumannomyces graminis var. tritici isolate HN09 expressing C1 genetic cluster assessed as reduction in fungal colony diameter after 4 days; conditions: isolate HN09, 96 h
Gaeumannomyces tritici [15] = experiment: Antifungal activity against sithiofam-resistant Gaeumannomyces graminis var. tritici isolate HN08 expressing C1 genetic cluster assessed as reduction in fungal colony diameter after 4 days; conditions: isolate HN08, 96 h
Gaeumannomyces tritici [16] = experiment: Antifungal activity against sithiofam-resistant Gaeumannomyces graminis var. tritici isolate HN07 expressing C1 genetic cluster assessed as reduction in fungal colony diameter after 4 days; conditions: isolate HN07, 96 h
Gaeumannomyces tritici [17] = experiment: Antifungal activity against sithiofam-resistant Gaeumannomyces graminis var. tritici isolate HN06 expressing C1 genetic cluster assessed as reduction in fungal colony diameter after 4 days; conditions: isolate HN06, 96 h
Gaeumannomyces tritici [18] = experiment: Antifungal activity against sithiofam-resistant Gaeumannomyces graminis var. tritici isolate HN04 expressing C1 genetic cluster assessed as reduction in fungal colony diameter after 4 days; conditions: isolate HN04, 96 h
Gaeumannomyces tritici [19] = experiment: Antifungal activity against sithiofam-resistant Gaeumannomyces graminis var. tritici isolate HN01 expressing C1 genetic cluster assessed as reduction in fungal colony diameter after 4 days; conditions: isolate HN01, 96 h
Gaeumannomyces tritici [20] = experiment: Antifungal activity against sithiofam-sensitive Gaeumannomyces graminis var. tritici isolate AH08 expressing C2 genetic cluster assessed as reduction in fungal colony diameter after 4 days; conditions: isolate AH08, 96 h
Gaeumannomyces tritici [21] = experiment: Antifungal activity against sithiofam-sensitive Gaeumannomyces graminis var. tritici isolate HN17 expressing C2 genetic cluster assessed as reduction in fungal colony diameter after 4 days; conditions: isolate HN17, 96 h
Gaeumannomyces tritici [22] = experiment: Antifungal activity against sithiofam-resistant Gaeumannomyces graminis var. tritici isolate HN16 expressing C1 genetic cluster assessed as reduction in fungal colony diameter after 4 days; conditions: isolate HN16, 96 h
Gaeumannomyces tritici [23] = experiment: Antifungal activity against sithiofam-sensitive Gaeumannomyces graminis var. tritici isolate HN15 expressing C2 genetic cluster assessed as reduction in fungal colony diameter after 4 days; conditions: isolate HN15, 96 h
Gaeumannomyces tritici [24] = experiment: Antifungal activity against sithiofam-sensitive Gaeumannomyces graminis var. tritici isolate JS01 expressing C1 genetic cluster assessed as reduction in fungal colony diameter after 4 days; conditions: isolate JS01, 96 h
Gaeumannomyces tritici [25] = experiment: Antifungal activity against sithiofam-sensitive Gaeumannomyces graminis var. tritici isolate AH16 expressing C2 genetic cluster assessed as reduction in fungal colony diameter after 4 days; conditions: isolate AH16, 96 h
Gaeumannomyces tritici [26] = experiment: Antifungal activity against sithiofam-sensitive Gaeumannomyces graminis var. tritici isolate AH07 expressing C2 genetic cluster assessed as reduction in fungal colony diameter after 4 days; conditions: isolate AH07, 96 h
Gaeumannomyces tritici [27] = experiment: Antifungal activity against sithiofam-sensitive Gaeumannomyces graminis var. tritici isolate AH04 expressing C2 genetic cluster assessed as reduction in fungal colony diameter after 4 days; conditions: isolate AH04, 96 h
Gaeumannomyces tritici [28] = experiment: Antifungal activity against sithiofam-resistant Gaeumannomyces graminis var. tritici isolate AH02 expressing C1 genetic cluster assessed as reduction in fungal colony diameter after 4 days; conditions: isolate AH02, 96 h
Gaeumannomyces tritici [29] = experiment: Antifungal activity against sithiofam-sensitive Gaeumannomyces graminis var. tritici isolate AH01 expressing C2 genetic cluster assessed as reduction in fungal colony diameter after 4 days; conditions: isolate AH01, 96 h
Gaeumannomyces tritici [30] = experiment: Antifungal activity against sithiofam-sensitive Gaeumannomyces graminis var. tritici isolate SD05 expressing C2 genetic cluster assessed as reduction in fungal colony diameter after 4 days; conditions: isolate SD05, 96 h
Gaeumannomyces tritici [31] = experiment: Antifungal activity against sithiofam-sensitive Gaeumannomyces graminis var. tritici isolate SD04 expressing C2 genetic cluster assessed as reduction in fungal colony diameter after 4 days; conditions: isolate SD04, 96 h
Gaeumannomyces tritici [32] = experiment: Antifungal activity against sithiofam-sensitive Gaeumannomyces graminis var. tritici isolate SD02 expressing C2 genetic cluster assessed as reduction in fungal colony diameter after 4 days; conditions: isolate SD02, 96 h
Gaeumannomyces tritici [33] = experiment: Antifungal activity against sithiofam-resistant Gaeumannomyces graminis var. tritici isolate AH13 expressing C1 genetic cluster assessed as reduction in fungal colony diameter after 4 days; conditions: isolate AH13, 96 h
Gaeumannomyces tritici [34] = experiment: Antifungal activity against sithiofam-sensitive Gaeumannomyces graminis var. tritici isolate AH12 expressing C2 genetic cluster assessed as reduction in fungal colony diameter after 4 days; conditions: isolate AH12, 96 h
Gaeumannomyces tritici [35] = experiment: Antifungal activity against sithiofam-sensitive Gaeumannomyces graminis var. tritici isolate HN32 expressing C2 genetic cluster assessed as reduction in fungal colony diameter after 4 days; conditions: isolate HN32, 96 h
Gaeumannomyces tritici [36] = experiment: Antifungal activity against sithiofam-sensitive Gaeumannomyces graminis var. tritici isolate HN31 expressing C3 genetic cluster assessed as reduction in fungal colony diameter after 4 days; conditions: isolate HN31, 96 h
Gaeumannomyces tritici [37] = experiment: Antifungal activity against sithiofam-sensitive Gaeumannomyces graminis var. tritici isolate HN30 expressing C2 genetic cluster assessed as reduction in fungal colony diameter after 4 days; conditions: isolate HN30, 96 h

Compound | EC50 (Gaeumannomyces tritici [1]) | EC50 (Gaeumannomyces tritici [2]) | EC50 (Gaeumannomyces tritici [3]) | EC50 (Gaeumannomyces tritici [4]) | EC50 (Gaeumannomyces tritici [5]) | EC50 (Gaeumannomyces tritici [6]) | EC50 (Gaeumannomyces tritici [7]) | EC50 (Gaeumannomyces tritici [8]) | EC50 (Gaeumannomyces tritici [9]) | EC50 (Gaeumannomyces tritici [10]) | EC50 (Gaeumannomyces tritici [11]) | EC50 (Gaeumannomyces tritici [12]) | EC50 (Gaeumannomyces tritici [13]) | EC50 (Gaeumannomyces tritici [14]) | EC50 (Gaeumannomyces tritici [15]) | EC50 (Gaeumannomyces tritici [16]) | EC50 (Gaeumannomyces tritici [17]) | EC50 (Gaeumannomyces tritici [18]) | EC50 (Gaeumannomyces tritici [19]) | EC50 (Gaeumannomyces tritici [20]) | further results
C=CCNC(=O)c1c([Si](C)(C)C)sc(C)c1C [SILTHIOFAM] | 111 µg/mL (≈ 417 µM) | 24.7 µg/mL (≈ 92.2 µM) | 34.2 µg/mL (≈ 128 µM) | 0.0005 µg/mL (≈ 0.00187 µM) | 24.8 µg/mL (≈ 92.7 µM) | 0.0005 µg/mL (≈ 0.00187 µM) | 0.0005 µg/mL (≈ 0.00187 µM) | 0.0018 µg/mL (≈ 0.00673 µM) | 0.0009 µg/mL (≈ 0.00336 µM) | 0.0024 µg/mL (≈ 0.00897 µM) | 0.0009 µg/mL (≈ 0.00336 µM) | 51.8 µg/mL (≈ 194 µM) | 30.2 µg/mL (≈ 113 µM) | 106 µg/mL (≈ 398 µM) | 62.4 µg/mL (≈ 233 µM) | 29.8 µg/mL (≈ 112 µM) | 29.9 µg/mL (≈ 112 µM) | 31.9 µg/mL (≈ 119 µM) | 82.7 µg/mL (≈ 309 µM) | 0.0013 µg/mL (≈ 0.00486 µM) | EC50 (Gaeumannomyces tritici [21]): 0.001 µg/mL (≈ 0.00374 µM); EC50 (Gaeumannomyces tritici [22]): 28.6 µg/mL (≈ 107 µM); EC50 (Gaeumannomyces tritici [23]): 0.0011 µg/mL (≈ 0.00411 µM); EC50 (Gaeumannomyces tritici [24]): 0.0002 µg/mL (≈ 0.000748 µM); EC50 (Gaeumannomyces tritici [25]): 0.0003 µg/mL (≈ 0.00112 µM); EC50 (Gaeumannomyces tritici [26]): 0.0006 µg/mL (≈ 0.00224 µM); EC50 (Gaeumannomyces tritici [27]): 0.0012 µg/mL (≈ 0.00449 µM); EC50 (Gaeumannomyces tritici [28]): 51.8 µg/mL (≈ 194 µM); EC50 (Gaeumannomyces tritici [29]): 0.0011 µg/mL (≈ 0.00411 µM); EC50 (Gaeumannomyces tritici [30]): 0.0007 µg/mL (≈ 0.00262 µM); EC50 (Gaeumannomyces tritici [31]): 0.0002 µg/mL (≈ 0.000748 µM); EC50 (Gaeumannomyces tritici [32]): 0.0036 µg/mL (≈ 0.0135 µM); EC50 (Gaeumannomyces tritici [33]): 70.2 µg/mL (≈ 263 µM); EC50 (Gaeumannomyces tritici [34]): 0.0006 µg/mL (≈ 0.00224 µM); EC50 (Gaeumannomyces tritici [35]): 0.0004 µg/mL (≈ 0.0015 µM); EC50 (Gaeumannomyces tritici [36]): 0.0004 µg/mL (≈ 0.0015 µM); EC50 (Gaeumannomyces tritici [37]): 0.0014 µg/mL (≈ 0.00523 µM)
CC(C)(C)C(O)(CCc1ccc(Cl)cc1)Cn1cncn1 (centres undefined) [TEBUCONAZOLE] | 0.085 µg/mL (≈ 0.276 µM) | 0.0575 µg/mL (≈ 0.187 µM) | 0.0298 µg/mL (≈ 0.0968 µM) | 0.0609 µg/mL (≈ 0.198 µM) | 0.104 µg/mL (≈ 0.338 µM) | 0.0727 µg/mL (≈ 0.236 µM) | 0.18 µg/mL (≈ 0.584 µM) | 0.0722 µg/mL (≈ 0.235 µM) | 0.078 µg/mL (≈ 0.253 µM) | 0.039 µg/mL (≈ 0.127 µM) | 0.0479 µg/mL (≈ 0.156 µM) | 0.0689 µg/mL (≈ 0.224 µM) | 0.0691 µg/mL (≈ 0.224 µM) | 0.0415 µg/mL (≈ 0.135 µM) | 0.057 µg/mL (≈ 0.185 µM) | 0.0513 µg/mL (≈ 0.167 µM) | 0.0533 µg/mL (≈ 0.173 µM) | 0.056 µg/mL (≈ 0.182 µM) | 0.0198 µg/mL (≈ 0.0643 µM) | 0.0489 µg/mL (≈ 0.159 µM) | EC50 (Gaeumannomyces tritici [21]): 0.0398 µg/mL (≈ 0.129 µM); EC50 (Gaeumannomyces tritici [22]): 0.0599 µg/mL (≈ 0.195 µM); EC50 (Gaeumannomyces tritici [23]): 0.0516 µg/mL (≈ 0.168 µM); EC50 (Gaeumannomyces tritici [24]): 0.0325 µg/mL (≈ 0.106 µM); EC50 (Gaeumannomyces tritici [25]): 0.0965 µg/mL (≈ 0.313 µM); EC50 (Gaeumannomyces tritici [26]): 0.0647 µg/mL (≈ 0.21 µM); EC50 (Gaeumannomyces tritici [27]): 0.231 µg/mL (≈ 0.752 µM); EC50 (Gaeumannomyces tritici [28]): 0.0999 µg/mL (≈ 0.325 µM); EC50 (Gaeumannomyces tritici [29]): 0.0254 µg/mL (≈ 0.0825 µM); EC50 (Gaeumannomyces tritici [30]): 0.0688 µg/mL (≈ 0.224 µM); EC50 (Gaeumannomyces tritici [31]): 0.127 µg/mL (≈ 0.412 µM); EC50 (Gaeumannomyces tritici [32]): 0.0575 µg/mL (≈ 0.187 µM); EC50 (Gaeumannomyces tritici [33]): 0.302 µg/mL (≈ 0.981 µM); EC50 (Gaeumannomyces tritici [34]): 0.0416 µg/mL (≈ 0.135 µM); EC50 (Gaeumannomyces tritici [35]): 0.238 µg/mL (≈ 0.772 µM); EC50 (Gaeumannomyces tritici [36]): 0.111 µg/mL (≈ 0.362 µM); EC50 (Gaeumannomyces tritici [37]): 0.123 µg/mL (≈ 0.401 µM)
